What was measured:
[1] = test system: patients with cancer; assay: Phase II double-blind, placebo-controlled study in cancer patients with weight loss; type: in vivo, human; details: 3 mg dose, 4 months
Experimental: A Phase II double-blind, placebo-controlled study was performed with patients with cancer that had experienced at least a 2% total body weight loss in the 6 months prior to the study. The subjects received S-I or matching placebo for 4 months. In this study, no exercise program was mandated and no diet control or monitoring was conducted. The primary endpoint of this study was total lean body mass. The key secondary endpoint of this study was physical function (stair climb speed and power).

[2] = test system: ovariectomized female rats; assay: Delivery system study: lean body mass and serum HDL in OVX rats; type: in vivo, rat; details: 14 days, 0.13 mg/kg/day constant rate subcutaneous infusion (Alzet pump) vs daily subcutaneous injection
Experimental: Female rats were ovariectomized and randomized by body weight into groups of 10. Treatment groups included: (1) 3 mg/kg/day DHT administered daily via subcutaneous injection, (2) 0.13 mg/kg/day S-I administered daily via subcutaneous injection, and (3) 0.13 mg/kg/day S-I administered at a constant rate via subcutaneous infusion by an Alzet pump. Baseline measurements of fasting serum HDL as determined by enzymatic assay were performed via retroorbital blood draw for all animals. Baseline lean body mass (LBM) as determined by magnetic resonance was determined for all animals. After 14 days of treatment, changes from baseline in lean body mass (Δ LBM) and fasting serum HDL (Δ HDL) were determined and represented as a percentage of DHT treated animals.

[3] = Exposure of S-I in female rats; type: in vivo, rat
Experimental: The exposure of S-I in female rats was AUCinf of 147,000 ng*hr/ml following a single 10 mg per kg IV dose. With the reasonable assumption that the SC Alzet pump dose was completely absorbed, a 0.13 mg per kg dose should result in an exposure of −1911 ng*hr/mL in rats. […] In other words, the 0.13 mg per kg per day Alzet dose in rats is equivalent to a 10 mg per day continuous release dose in humans, such as might be accomplished by a mechanical or osmotic pump, or transdermal patch, or the like.

[4] = Steady-state exposure in healthy young men (G100402, MAD); details: male, human, in vivo, 10 mg daily doses

## C[C@](O)(COc1ccc(C#N)cc1)C(=O)Nc1ccc(C#N)c(C(F)(F)F)c1 [Compound S-I, (S)—N-(4-cyano-3-(trifluoromethyl)phenyl)-3-(4-cyanophenoxy)-2-hydroxy-2-methylpropanamide]
[1]; p=0.001 compared to baseline, p=0.058 compared to placebo
  power subjects were able to exert climbing 12 steps: statistically significant increase
[1]; p=0.007 compared to baseline, p=0.028 compared to placebo
  time it took the subjects to climb 12 steps: statistically significant decrease
[1]; p=0.015 compared to placebo, p=0.020 compared to baseline
  total lean body mass: statistically significant increase
[2]
  change from baseline in fasting serum HDL (Δ HDL): smaller decrease in serum HDL
  change from baseline in lean body mass (Δ LBM): larger increase in LBM than daily subcutaneous injections
[3]; rat, in vivo, 10 mg/kg, female rats, single 10 mg per kg IV dose
  AUC(0-inf): 147000 ng·h/mL
[3]; rats, SC Alzet pump dose assumed completely absorbed, extrapolated from 10 mg per kg IV
  exposure expected at 0.13 mg per kg dose: -1911 ng·h/mL
[4]
  AUC(0-t): 1750 ng·h/mL
